Experimental data from patent publication US9808003B2, “Herbicidally active 2-(substituted-phenyl)-cyclopentane-1,3-dione compounds and derivatives thereof” (Syngenta Limited, priority 2013, dated 2017).

How the values were obtained:
Format in all cases: in vivo
[1] = system: Alopecurus myosuroides (ALOMY); experiment: Test 1B glasshouse assay, post-emergence herbicidal activity against grassy weeds; conditions: 14 DAA
Protocol: (§1) Biological Example 1B tests the herbicidal activity of“technical” compounds (i.e. compounds not previously formulated before the test), as the herbicides under test.
(§2) An “instant formulation”, known as the “IF50”, containing 50 g/liter (i.e. 5% w/v) of the “technical” (i.e. unformulated) active ingredient (i.e. the herbicide under test), is prepared by dissolving the active ingredient in a mixture of organic solvents and emulsifier, details of which are provided in the Table below.
(§3) This IF50 is mixed with a small, variable amount of acetone to aid dissolution, before addition of a 0.5% v/v aqueous solution of the adjuvant Adigor™ (an adjuvant containing rapeseed oil methyl ester, ethoxylated alcohols, and a mixture of heavy aromatic hydrocarbons, e.g. available from Syngenta), as the aqueous diluent, to form an aqueous spray solution which contains a predetermined concentration of the active ingredient (which varies depending on the application rate of the active ingredient to the plants) and 0.5% v/v of the adjuvant Adigor™. This aqueous spray solution is suitable for spraying onto plants.
(§4) Seeds of a variety of test species are sown in standard soil in pots. After cultivation for 14 days under controlled conditions in a glasshouse (at 22/16° C., day/night; 16 hours light; 65% humidity), the plants are sprayed post-emergence with the above-mentioned aqueous spray solution containing inter alia the “technical” active ingredient (i.e. the herbicide under test) and the adjuvant Adigor™.
(§5) The test plants are then grown on under controlled conditions in the glasshouse (at 22/16° C., day/night; 16 hours light; 65% humidity) and are watered twice daily. 14 days after application of the test herbicide, the test is evaluated visually for percentage phytotoxicity to the plant (where 100%=total damage to plant; 0%=no damage to plant).
(§6) More specifically, post-emergence herbicidal activity (phytotoxicity) data, on certain tested grassy monocotyledonous weeds (and/or plants of the type Gramineae) and cereal crops in the glasshouse, are measured 14 days after application of the herbicide (14 DAA), typically for inter alia one or more of the following application rates: • (a) a post-emergence application rate of 60 g/ha of the test herbicide with or without 50 g/ha of cloquintocet-mexyl safener, and • (b) a post-emergence application rate of 90 g/ha of the test herbicide with 50 g/ha of cloquintocet-mexyl safener, and • (c) a post-emergence application rate of 120 g/ha of the test herbicide with 50 g/ha of cloquintocet-mexyl safener.
(§7) The cloquintocet-mexyl, when used, is present in the formulation containing the herbicide under test dissolved in acetone plus IF50.
(§8) The range of herbicide application rates tested sometimes includes application rates other than those shown above, and the rates can vary depending on the herbicide under test.
(§9) Herbicidal activity (phytotoxicity) is evaluated visually, and an assessed percentage phytotoxicity score is given for each herbicidal application on each plant species (with 100%=total damage to plant; 0%=no damage to plant; the assessment is recorded in increments of 1%). Two replicates are made for each experiment, and the mean herbicidal activity (phytotoxicity) data is reported.
(§10) For compounds A34, A98, A99, A87, A100, A101, A89, A120, A120A, A120B, A23, A127, A128, A89, A112 and A113 the tested weeds were as follows: Avena fatua (AVEFA), Lolium multiflorum (LOLMU), Setaria viridis (SETVI), Poa annua (POAAN), Alopecurus myosuroides (ALOMY). All five of these are grassy monocotyledonous weeds. Except for SETVI, these are all “cool-season” grassy monocotyledonous weeds.

Avena fatua (AVEFA) [2] = experiment: as above; conditions: 14 DAA
Protocol: as §1, §2, §3, §4, §5, §6, §7, §8, §9, §10

[3] = system: Lolium multiflorum (LOLMU); experiment: as above; conditions: 14 DAA
Protocol: as §1, §2, §3, §4, §5, §6, §7, §8, §9, §10

Poa annua (POAAN) = experiment: as above; conditions: 14 DAA
Protocol: as §1, §2, §3, §4, §5, §6, §7, §8, §9, §10

Setaria viridis (SETVI) = experiment: as above; conditions: 14 DAA
Protocol: as §1, §2, §3, §4, §5, §6, §7, §8, §9, §10

[4] = system: Spring Barley “Harrington”; experiment: Test 1B glasshouse assay, post-emergence herbicidal activity against cereal crops
Protocol: as §1, §2, §3, §4, §5, §6, §7, §8, §9

Winter Barley “Suzuka” = experiment: as above
Protocol: as §1, §2, §3, §4, §5, §6, §7, §8, §9

Winter Wheat “Hereward” = experiment: as above
Protocol: as §1, §2, §3, §4, §5, §6, §7, §8, §9

[5] = system: Alopecurus myosuroides (ALOMY); experiment: Test 1A glasshouse assay, post-emergence herbicidal activity; conditions: Alopecurus myosuroides, 312 h, application rate 250 g/ha, 13 days after application, visual (100%=total damage; 0%=no damage), read-out: Post-emergence Herbicidal Activity (% Phytotoxicity) ALOMY
Method in brief: (§11)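 Post-emergence spray at 8 d after sowing; vehicle acetone/water 50:50 + 0.5% Tween 20. Glasshouse 24/16 °C, 14 h light, 65% RH, watered 2×/day. Visual phytotoxicity (%) at 13 DAA.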

Avena fatua (AVEFA) [6] = experiment: as above; conditions: Avena fatua, 312 h, application rate 250 g/ha, 13 days after application, visual (100%=total damage; 0%=no damage), read-out: Post-emergence Herbicidal Activity (% Phytotoxicity) AVEFA
Method in brief: as §11

[7] = system: Echinochloa crus-galli (ECHCG); experiment: as above; conditions: Echinochloa crus-galli, 312 h, application rate 250 g/ha, 13 days after application, visual (100%=total damage; 0%=no damage), read-out: Post-emergence Herbicidal Activity (% Phytotoxicity) ECHCG
Method in brief: as §11

Lolium perenne (LOLPE) = experiment: as above; conditions: Lolium perenne, 312 h, application rate 250 g/ha, 13 days after application, visual (100%=total damage; 0%=no damage), read-out: Post-emergence Herbicidal Activity (% Phytotoxicity) LOLPE
Method in brief: as §11

[8] = 30 g/ha herbicide, 50 g/ha cloquintocet-mexyl
[9] = 45 g/ha herbicide, 50 g/ha cloquintocet-mexyl
[10] = 60 g/ha herbicide, 0 g/ha cloquintocet-mexyl
[11] = 60 g/ha herbicide, 50 g/ha cloquintocet-mexyl
[12] = herbicide 30 g/ha, cloquintocet-mexyl 50 g/ha
[13] = herbicide 45 g/ha, cloquintocet-mexyl 50 g/ha
[14] = herbicide 60 g/ha, cloquintocet-mexyl 0 g/ha
[15] = herbicide 60 g/ha, cloquintocet-mexyl 50 g/ha

Row | Structure (SMILES) | Post-emergence herbicidal activity, percentage phytotoxicity, ALOMY [1, 8] | Post-emergence herbicidal activity, percentage phytotoxicity, ALOMY [1, 9] | Post-emergence herbicidal activity, percentage phytotoxicity, ALOMY [1, 10] | Post-emergence herbicidal activity, percentage phytotoxicity, ALOMY [1, 11] | Post-emergence herbicidal activity, percentage phytotoxicity, AVEFA (Avena fatua (AVEFA) [2]; [8]) | Post-emergence herbicidal activity, percentage phytotoxicity, AVEFA (Avena fatua (AVEFA) [2]; [9]) | Post-emergence herbicidal activity, percentage phytotoxicity, AVEFA (Avena fatua (AVEFA) [2]; [10]) | Post-emergence herbicidal activity, percentage phytotoxicity, AVEFA (Avena fatua (AVEFA) [2]; [11]) | Post-emergence herbicidal activity, percentage phytotoxicity, LOLMU [3, 8] | Post-emergence herbicidal activity, percentage phytotoxicity, LOLMU [3, 9] | Post-emergence herbicidal activity, percentage phytotoxicity, LOLMU [3, 10] | Post-emergence herbicidal activity, percentage phytotoxicity, LOLMU [3, 11] | Post-emergence herbicidal activity, percentage phytotoxicity, POAAN (Poa annua (POAAN); [8]) | Post-emergence herbicidal activity, percentage phytotoxicity, POAAN (Poa annua (POAAN); [9]) | Post-emergence herbicidal activity, percentage phytotoxicity, POAAN (Poa annua (POAAN); [10]) | Post-emergence herbicidal activity, percentage phytotoxicity, POAAN (Poa annua (POAAN); [11]) | Post-emergence herbicidal activity, percentage phytotoxicity, SETVI (Setaria viridis (SETVI); [8]) | Post-emergence herbicidal activity, percentage phytotoxicity, SETVI (Setaria viridis (SETVI); [9]) | Post-emergence herbicidal activity, percentage phytotoxicity, SETVI (Setaria viridis (SETVI); [10]) | Post-emergence herbicidal activity, percentage phytotoxicity, SETVI (Setaria viridis (SETVI); [11]) | further results
1 | Cc1cc(C)c(C2C(=O)C[C@@H](CCNC(=O)c3ccc(Br)cn3)C2=O)c(C)c1 (stereo partly drawn) [Compound A120A] | 80% | 88% | 95% | 90% | 90% | 95% | 97% | 97% | 97% | 100% | 100% | 100% | 3% | 5% | 30% | 10% | 100% | 100% | 100% | 100% | Percentage Phytotoxicity Spring Barley “Harrington” [4, 12]: 30%; Percentage Phytotoxicity Spring Barley “Harrington” [4, 13]: 60%; Percentage Phytotoxicity Spring Barley “Harrington” [4, 14]: 85%; Percentage Phytotoxicity Spring Barley “Harrington” [4, 15]: 73%; Percentage Phytotoxicity Winter Barley “Suzuka” (Winter Barley “Suzuka”; [12]): 23%; Percentage Phytotoxicity Winter Barley “Suzuka” (Winter Barley “Suzuka”; [13]): 75%; Percentage Phytotoxicity Winter Barley “Suzuka” (Winter Barley “Suzuka”; [14]): 93%; Percentage Phytotoxicity Winter Barley “Suzuka” (Winter Barley “Suzuka”; [15]): 83%; Percentage Phytotoxicity Winter Wheat “Hereward” (Winter Wheat “Hereward”; [12]): 53%; Percentage Phytotoxicity Winter Wheat “Hereward” (Winter Wheat “Hereward”; [13]): 60%; Percentage Phytotoxicity Winter Wheat “Hereward” (Winter Wheat “Hereward”; [14]): 73%; Percentage Phytotoxicity Winter Wheat “Hereward” (Winter Wheat “Hereward”; [15]): 65%
2 | Cc1cc(C)c(C2C(=O)C[C@H](CCNC(=O)c3ccc(Br)cn3)C2=O)c(C)c1 (stereo partly drawn) [Compound A120B] | 43% | 58% | 73% | 70% | 3% | 10% | 38% | 48% | 58% | 73% | 83% | 73% | 0% | 0% | 4% | 4% | 40% | 65% | 68% | 68% | Percentage Phytotoxicity Spring Barley “Harrington” [4, 12]: 3%; Percentage Phytotoxicity Spring Barley “Harrington” [4, 13]: 10%; Percentage Phytotoxicity Spring Barley “Harrington” [4, 14]: 53%; Percentage Phytotoxicity Spring Barley “Harrington” [4, 15]: 23%; Percentage Phytotoxicity Winter Barley “Suzuka” (Winter Barley “Suzuka”; [12]): 3%; Percentage Phytotoxicity Winter Barley “Suzuka” (Winter Barley “Suzuka”; [13]): 9%; Percentage Phytotoxicity Winter Barley “Suzuka” (Winter Barley “Suzuka”; [14]): 75%; Percentage Phytotoxicity Winter Barley “Suzuka” (Winter Barley “Suzuka”; [15]): 13%; Percentage Phytotoxicity Winter Wheat “Hereward” (Winter Wheat “Hereward”; [12]): 7%; Percentage Phytotoxicity Winter Wheat “Hereward” (Winter Wheat “Hereward”; [13]): 10%; Percentage Phytotoxicity Winter Wheat “Hereward” (Winter Wheat “Hereward”; [14]): 58%; Percentage Phytotoxicity Winter Wheat “Hereward” (Winter Wheat “Hereward”; [15]): 13%
3 | Cc1cc(-n2cc(Cl)cn2)cc(C)c1C1=C(OS(=O)(=O)c2ccc(F)cc2)CC(CCNC(=O)c2ccccn2)C1=O (stereo not drawn) [Compound P16] |  |  |  |  |  |  |  |  |  |  |  |  |  |  |  |  |  |  |  |  | pest or weed control at 250 g/ha [5]: 100%; pest or weed control at 250 g/ha (Avena fatua (AVEFA) [6]): 90%; pest or weed control at 250 g/ha [7]: 100%; pest or weed control at 250 g/ha (Lolium perenne (LOLPE)): 100%
4 | Cc1cc(C)c(C2=C(OC(=O)c3ccc(F)cc3)CC(CCNC(=O)c3ccc(Br)cn3)C2=O)c(C)c1 (stereo not drawn) [Compound P17] |  |  |  |  |  |  |  |  |  |  |  |  |  |  |  |  |  |  |  |  | pest or weed control at 250 g/ha [5]: 100%; pest or weed control at 250 g/ha (Avena fatua (AVEFA) [6]): 100%; pest or weed control at 250 g/ha [7]: 100%; pest or weed control at 250 g/ha (Lolium perenne (LOLPE)): 100%
